For data set [1] the following is noted: cited from earlier work.
The conditions of data set [2]: cited from earlier work. The source holds these as a separate data set.
For data set [3], the system named is conditioned place preference. Briefly: Psychological dependence on tramadol by change in conditioned place preference (CPP). It counts as in vivo, Sprague-Dawley rats. The settings on record: rats; for Change (min) in the time stayed in non-preferred compartment / Change (min) in the time stayed in preferred compartment: post- vs pre-conditioning, 15 minutes. How it is done:
3. Test for Measuring Psychological Dependence on Tramadol by Assessment of Dependence Potential
In order to measure psychological dependence which is one of the side effects of tramadol, a change in conditioned place preference (CPP) was measured. Conditioned place preference boxes are divided into three boxes, that is, a white box, a black box and a gray box, as shown in FIG. 8. The gray box is a meddle portion in which an animal can choose between the white box and the black box, and the gray box is […]. The black box has a bottom composed of stainless steel rods having a diameter of 4.8 mm and a spacing of 16 mm, and the white box has a bottom composed of stainless steel meshes having a size of 1.25×1.25 cm. The gray box is 12 cm in width, 22 cm in length, and 21 cm in height, and the white box and the black box are 28 cm in width, 21 cm in length, and 21 cm in height.
A series of test procedures are as follows. 5-Week-old male Sprague-Dawley rats (SD rats) were purchased and acclimated for one week. Then, on days 1, 2 and 3 of the test (preconditioning step), in a state in which each rat was not treated with a drug or normal saline for injection, each rat was placed in the gray compartment, and then the door was opened and the time that each rat stayed in each compartment was measured for 15 minutes. Then, based on the mean of the measurement results, the compartment preferred by the rats in the preconditioning step (that is, the compartment in which the rats stayed longer, among the white compartment and the black compartment) was determined.
The next step is a conditioning step corresponding to day 4 to day 11. On days 4, 6, 8 and 10, the corresponding dose of each of the Test Example and the Comparative Examples was administered by intraperitoneal injection to each rat, and after 30 minutes, the rats were adapted to the non-preferred compartment for 30 minutes so as to allow the rats to remember the non-preferred compartment in association with tramadol. On the remaining days 5, 7, 9 and 11, normal saline for injection was administered by intraperitoneal injection to the rats, and after 30 minutes, the rats were adapted to the preferred compartment for 30 minutes so as to allow the rats to remember the preferred compartment in association with the saline solution. On day 12 corresponding to a final step (post-conditioning step), in a state in which neither the drug nor normal saline for injection was administered to the rats, the rats were placed in the gray compartment, and then the door was opened and the time that the rats stayed in each compartment was measured for 15 minutes (see Table 7).
The difference between the time that the rats stayed in the tramadol-associated place (non-preferred compartment) in the post-conditioning step and the time that the rats stayed in the non-preferred compartment in the pre-conditioning step indicates the tramadol-induced change in conditioned place preference, that is, psychological dependence on the drug.
Next, based on the test results, the standardized J-T statistic and the significance level (p-value) were confirmed using a Jonckheere-terpstra test which is a non-parametric statistical method.

[4] abbreviates: tramadol 2.6 mg/kg intraperitoneal on days 4, 6, 8, 10.
[5] abbreviates: tramadol 3.9 mg/kg intraperitoneal on days 4, 6, 8, 10.
Setting [6] is: tramadol 10.3 mg/kg intraperitoneal on days 4, 6, 8, 10.

Structures are written as SMILES. Values after ≈ are worked out from the molar mass of the structure shown. Read-outs that look alike come from different tables or passages of the source.

In the case of `Cc1ccc(-c2cc(C(F)(F)F)nn2-c2ccc(S(N)(=O)=O)cc2)cc1` [Celecoxib], the solubility in water in data set [1] (20° C.) is 3.3 µg/mL (≈ 8.65 µM). In data set [2], the in vivo half-life result is reported as “about 11 hours”.

Take `COc1cccc(C2(O)CCCCC2CN(C)C)c1` (centres unmarked) [tramadol]: in data set [1], the “solubility in water” value is recorded as “very soluble in water”. Moreover, the “Change (min) in the time stayed in non-preferred compartment” value in data set [3] (setting [4]) is recorded as 1.3 min; in data set [3] (setting [5]) it was 2.8 min; in data set [3] (setting [6]) it was 3.3 min. Moreover, the results for the “Change (min) in the time stayed in preferred compartment” value in data set [3] (setting [4]), in data set [3] (setting [5]) and in data set [3] (setting [6]) were -0.17 min, 2.20 min and 3.03 min, respectively. Besides, the “psychological dependence on tramadol (FIG. 9)” value in data set [3] (tramadol 37.5 mg (Comparative Example 5) or 100 mg (Comparative Example 6) compared to Test Example 2 (tramadol 25 mg) and Comparative Example 4 (tramadol 0 mg)) is on record as “greatly increased”. The blood half-life entry in data set [2] (in vivo) is given as “about 6 hours”.
